Test results reported in patent publication US20250340557A1, “PYRIMIDINE DERIVATIVE” (ASKA PHARMACEUTICAL CO., LTD., priority 2022, published 2025).

Molecular target: T1, human mPGES-1 (Homo sapiens, UniProt O14684)
T1 construct: made in house; host or cells: COS-1 cells (transient transfection; microsomal fraction used as enzyme)
T1 sequence (O14684 1-152): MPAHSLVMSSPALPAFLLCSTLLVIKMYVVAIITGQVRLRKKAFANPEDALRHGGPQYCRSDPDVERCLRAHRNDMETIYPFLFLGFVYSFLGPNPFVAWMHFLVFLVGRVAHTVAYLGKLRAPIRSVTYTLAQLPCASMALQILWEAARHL
Experiment: Test for mPGES-1 inhibitory activity (microsomal enzyme, PGE2 EIA)
Format: biochemical
Conditions: microsomes of COS-1 cells transfected with human mPGES-1 cDNA; PGH2 1 μM; 4° C., 4 minutes; PGE2 by EIA; read-out: h mPGES1 IC50
How it was run: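 Enzyme source was microsomes from COS-1 cells transiently expressing human mPGES-1, in sodium phosphate pH 7.2 with 2.5 mM GSH, 1 mM EDTA and 2% DMSO final. After a 15 min preincubation with compound at 4 °C, 1 μM PGH2 (final) reacted for 4 min at 4 °C.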

Row | SMILES | IC50 [nM]
1 | O=c1cc(C(F)(F)F)nc(-c2c(C(F)(F)F)ccc(CNC(=O)[C@H]3C[C@H](Oc4cccc(Cl)c4)C3)c2F)[nH]1 [Example 253, trans-3-(3-chlorophenoxy)-N-{2-fluoro-3-[6-oxo-4-(trifluoromethyl)-1,6-dihydropyrimidin-2-yl]-4-(trifluoromethyl)benzyl}cyclobutane-1-carboxamide] | 1
2 | O=c1cc(C(F)(F)F)nc(-c2c(C(F)(F)F)ccc(CNC(=O)[C@H]3C[C@@H](Oc4cccc(Cl)c4)C3)c2F)[nH]1 [Example 254, cis-3-(3-chlorophenoxy)-N-{2-fluoro-3-[6-oxo-4-(trifluoromethyl)-1,6-dihydropyrimidin-2-yl]-4-(trifluoromethyl)benzyl}cyclobutane-1-carboxamide] | 4.6
3 | O=c1cc(C(F)(F)F)nc(-c2c(C(F)(F)F)ccc(CNC(=O)[C@H]3C[C@H](Oc4ccc(Cl)cc4)C3)c2F)[nH]1 [Example 255, trans-3-(4-chlorophenoxy)-N-{2-fluoro-3-[6-oxo-4-(trifluoromethyl)-1,6-dihydropyrimidin-2-yl]-4-(trifluoromethyl)benzyl}cyclobutane-1-carboxamide] | 2.8
4 | CC(C)CO[C@H]1C[C@@H](C(=O)NCc2ccc(C(F)(F)F)c(-c3nc(C(F)(F)F)cc(=O)[nH]3)c2F)C1 [Example 257, cis-N-{2-fluoro-3-[6-oxo-4-(trifluoromethyl)-1,6-dihydropyrimidin-2-yl]-4-(trifluoromethyl)benzyl}-3-isobutoxycyclobutane-1-carboxamide] | 5.8
5 | O=C(NCc1ccc(C(F)(F)F)c(-c2nc(C(F)(F)F)cc(=O)[nH]2)c1F)N1CCC(Oc2ccc(Cl)c(Cl)c2)CC1 [Example 258, 4-(3,4-dichlorophenoxy)-N-{2-fluoro-3-[6-oxo-4-(trifluoromethyl)-1,6-dihydropyrimidin-2-yl]-4-(trifluoromethyl)benzyl}piperidine-1-carboxamide] | < 1
6 | O=C(NCc1ccc(C(F)(F)F)c(-c2nc(C(F)(F)F)cc(=O)[nH]2)c1F)N1CCC(Oc2ccc(C(F)(F)F)cc2)CC1 [Example 260, N-{2-fluoro-3-[6-oxo-4-(trifluoromethyl)-1,6-dihydropyrimidin-2-yl]-4-(trifluoromethyl)benzyl}-4-[4-(trifluoromethyl)phenoxy]piperidine-1-carboxamide] | < 1
7 | O=C(NCc1ccc(C(F)(F)F)c(-c2nc(-c3ccc(C(F)(F)F)cn3)cc(=O)[nH]2)c1F)C1CC(OCc2ccccc2)C1 (centres unmarked) [Example 266, 3-(benzyloxy)-N-(2-fluoro-3-{6-oxo-4-[5-(trifluoromethyl)pyridin-2-yl]-1,6-dihydropyrimidin-2-yl}-4-(trifluoromethyl)benzyl)cyclobutane-1-carboxamide] | < 1
8 | O=C(NCc1ccc(C(F)(F)F)c(-c2nc(-c3ccc(C(F)(F)F)cn3)cc(=O)[nH]2)c1F)C1CCN(c2ccc3nccn3n2)CC1 [Example 267, N-(2-fluoro-3-{6-oxo-4-[5-(trifluoromethyl)pyridin-2-yl]-1,6-dihydropyrimidin-2-yl}-4-(trifluoromethyl)benzyl)-1-(imidazo[1,2-b]pyridazin-6-yl)piperidine-4-carboxamide] | < 1
9 | O=c1cc(-c2ccc(C(F)(F)F)cn2)nc(-c2c(C(F)(F)F)ccc(CNS(=O)(=O)c3ccccc3C(F)(F)F)c2F)[nH]1 [Example 269, N-(2-fluoro-3-{6-oxo-4-[5-(trifluoromethyl)pyridin-2-yl]-1,6-dihydropyrimidin-2-yl}-4-(trifluoromethyl)benzyl)-2-(trifluoromethyl)benzenesulfonamide] | 7.6
10 | O=c1cc(-c2ccc(C(F)(F)F)cn2)nc(-c2c(C(F)(F)F)ccc(CNS(=O)(=O)c3ccc(-c4ccccc4)cc3)c2F)[nH]1 [Example 271, N-(2-fluoro-3-{6-oxo-4-[5-(trifluoromethyl)pyridin-2-yl]-1,6-dihydropyrimidin-2-yl}-4-(trifluoromethyl)benzyl)-[1,1′-biphenyl]-4-sulfonamide] | 76
11 | O=c1cc(C(F)(F)F)nc(-c2c(C(F)(F)F)ccc(CNS(=O)(=O)c3ccccc3C(F)(F)F)c2F)[nH]1 [Example 272, N-{2-fluoro-3-[6-oxo-4-(trifluoromethyl)-1,6-dihydropyrimidin-2-yl]-4-(trifluoromethyl)benzyl}-2-(trifluoromethyl)benzenesulfonamide] | 33
12 | O=C(NCc1ccc(C(F)(F)F)c(-c2nc(C(F)(F)F)cc(=O)[nH]2)c1F)c1ccccc1C(F)(F)F [Example 273, N-{2-fluoro-3-[6-oxo-4-(trifluoromethyl)-1,6-dihydropyrimidin-2-yl]-4-(trifluoromethyl)benzyl}-2-(trifluoromethyl)benzamide] | 8.4
13 | O=C(NCc1ccc(C(F)(F)F)c(-c2nc(C(F)(F)F)cc(=O)[nH]2)c1F)c1cccc(Cl)c1Cl [Example 274, 2,3-dichloro-N-{2-fluoro-3-[6-oxo-4-(trifluoromethyl)-1,6-dihydropyrimidin-2-yl]-4-(trifluoromethyl)benzyl}benzamide] | < 1
14 | O=C(NCc1ccc(C(F)(F)F)c(-c2nc(C(F)(F)F)cc(=O)[nH]2)c1F)C1CCN(C(=O)Cc2ccc(F)cc2)CC1 [Example 275, N-{2-fluoro-3-[6-oxo-4-(trifluoromethyl)-1,6-dihydropyrimidin-2-yl]-4-(trifluoromethyl)benzyl}-1-[2-(4-fluorophenyl)acetyl]piperidine-4-carboxamide] | 0.94
15 | O=C(NCc1ccc(C(F)(F)F)c(-c2nc(C(F)(F)F)cc(=O)[nH]2)c1F)C1CN(C(=O)Cc2ccc(F)cc2)C1 [Example 276, N-{2-fluoro-3-[6-oxo-4-(trifluoromethyl)-1,6-dihydropyrimidin-2-yl]-4-(trifluoromethyl)benzyl}-1-[2-(4-fluorophenyl)acetyl]azetidine-3-carboxamide] | 24
16 | O=C(NCc1ccc(C(F)(F)F)c(-c2nc(C(F)(F)F)cc(=O)[nH]2)c1F)C1CCN(CCc2ccccc2)CC1 [Example 278, N-{2-fluoro-3-[6-oxo-4-(trifluoromethyl)-1,6-dihydropyrimidin-2-yl]-4-(trifluoromethyl)benzyl}-1-phenethylpiperidine-4-carboxamide] | 35
17 | O=c1cc(C(F)(F)F)nc(-c2c(C(F)(F)F)ccc(CNC(=O)[C@H]3CC[C@H](c4ccc(Cl)cc4)CC3)c2F)[nH]1 [Example 279, trans-4-(4-chlorophenyl)-N-{2-fluoro-3-[6-oxo-4-(trifluoromethyl)-1,6-dihydropyrimidin-2-yl]-4-(trifluoromethyl)benzyl}cyclohexane-1-carboxamide] | < 1
18 | O=C(NCc1ccc(C(F)(F)F)c(-c2nc(C(F)(F)F)cc(=O)[nH]2)c1F)C1Cc2ccccc2C1 [Example 280, N-{2-fluoro-3-[6-oxo-4-(trifluoromethyl)-1,6-dihydropyrimidin-2-yl]-4-(trifluoromethyl)benzyl}-2,3-dihydro-1H-indene-2-carboxamide] | < 1
19 | O=C(NCc1ccc(C(F)(F)F)c(-c2nc(C(F)(F)F)cc(=O)[nH]2)c1F)C1(c2ccc(Cl)cc2)CCCC1 [Example 281, 1-(4-chlorophenyl)-N-{2-fluoro-3-[6-oxo-4-(trifluoromethyl)-1,6-dihydropyrimidin-2-yl]-4-(trifluoromethyl)benzyl}cyclopentane-1-carboxamide] | 45
20 | O=C(Cc1ccc(C(F)(F)F)cc1)NCc1ccc(C(F)(F)F)c(-c2nc(C(F)(F)F)cc(=O)[nH]2)c1F [Example 283, N-{2-fluoro-3-[6-oxo-4-(trifluoromethyl)-1,6-dihydropyrimidin-2-yl]-4-(trifluoromethyl)benzyl}-2-[4-(trifluoromethyl)phenyl]acetamide] | 1.5
